Laboratory results taken from PubChem BioAssay (NCI).
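How tested: cells in 96-well plates exposed to compound for 48 hours at five concentrations. Definition used: TGI = concentration required for complete inhibition of growth.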

Test system: 786-0 renal
Test: growth of human tumour cells (NCI), 48 h

| SMILES | TGI |
| --- | --- |
| CC(C)(C)C(=O)CC1=Nc2ccccc2SC1(O)CC(=O)C(C)(C)C (centres undefined) | 68.3 µM |
| N#CC1=C(N)N(c2ccccc2)C(c2ccccc2)C1(C#N)C#N (centres undefined) | 32.6 µM |
| CCCCN=C(c1ccccc1)N1CCOCC1 | > 100 µM |
| CCOC(=O)c1ccc(C)c(N=NN(C)C)c1 | > 100 µM |
| CC(C)CC(O)P(=O)(O)O (centres undefined) | > 100 µM |
| CCC1(C)C=Cc2c(cc(O)c3c(=O)c4ccccc4n(C)c23)O1 (centres undefined) | > 10 µM |
| Cc1ccc(S(=O)(=O)NC(=O)N[C@@H](Cc2cnc[nH]2)C(=O)O)cc1 | > 100 µM |
| Nc1[nH]nc2nc3ccc(C(F)(F)F)cc3nc12 | 60.7 µM |
| O=[N+]([O-])/C(C(Cl)=C(Cl)Cl)=C(\N1CCCCC1)n1cncn1 | 52.4 µM |
| S=C(Nc1ccc2c(c1)oc1ccccc12)c1cccnc1 | > 100 µM |
| O=C1c2cccnc2-c2nccc3c2c1nc1cc(Br)ccc13 | 0.188 µM |
| NNC(=O)CSc1nc2ccccc2c(=O)n1N | 57.4 µM |
| Cc1cc(S(=O)(=O)Nc2nc3cc(-c4ccc(Cl)cc4)sc3c(=O)n2N)c(S)cc1Cl | > 100 µM |
| CCC(=O)ONC(=O)Cn1ccc([N+](=O)[O-])n1 | > 100 µM |
| CC(=O)NC1c2ccccc2C(C)(C)C12CCC1(CC2)OCCO1 (centres undefined) | > 100 µM |
| CN1COCc2c1ccc1cc3ccc4c(c3nc21)COCN4S(C)(=O)=O | > 100 µM |
| Oc1cccc(-c2nc3cc(F)ccc3s2)c1 | 39 µM |
| CN(C)c1ccc(C2SCC(=O)N2c2ccc(Oc3ccc(Cl)cc3)c(Cl)c2)cc1 (centres undefined) | 41.7 µM |
| CC(C(O)Cc1ccccc1)N(C)N=Nc1ccc([N+](=O)[O-])cc1 (centres undefined) | 38.6 µM |
| COc1ccc(/C=C2\N=C(SC)NC2=O)cc1 | > 100 µM |
| CC(C)NC(=O)OCCN=c1c2ccccc2ccc2ccccc12 | > 100 µM |
| O=c1oc2ccc([N+](=O)[O-])cc2c(Nc2ccc3c(c2)Oc2ccccc2O3)c1[N+](=O)[O-] | 67.9 µM |
| Cn1c2ccccc2c(=O)c2cccc(C(=O)NC(CCCN=C(N)N)C(=O)O)c21 (centres undefined) | > 100 µM |
| COc1cc(OC)c(C2c3cc4c(cc3OC(N3CCCC3)C2C)OCO4)c(OC)c1 (centres undefined) | 53.8 µM |
| Cn1c2ccccc2c(=NNc2cccc(C(=O)O)c2)c2ccccc21 | 52 µM |
| O=C1C(=Cc2ccccc2O)N=C(c2ccccc2)N1n1c(-c2ccccc2)nc2ccccc2c1=O | > 100 µM |

Test system: A498 renal
Test: growth of human tumour cells (NCI), 48 h

| SMILES | TGI |
| --- | --- |
| CC(C)(C)C(=O)CC1=Nc2ccccc2SC1(O)CC(=O)C(C)(C)C (centres undefined) | > 100 µM |
| N#CC1=C(N)N(c2ccccc2)C(c2ccccc2)C1(C#N)C#N (centres undefined) | 33.6 µM |
| CCCCN=C(c1ccccc1)N1CCOCC1 | > 100 µM |
| CCOC(=O)c1ccc(C)c(N=NN(C)C)c1 | > 100 µM |
| CC(C)CC(O)P(=O)(O)O (centres undefined) | > 100 µM |
| CCC1(C)C=Cc2c(cc(O)c3c(=O)c4ccccc4n(C)c23)O1 (centres undefined) | > 10 µM |
| O=NN(CCCl)C(=O)NC1CCC(O)CC1 (centres undefined) | > 100 µM |
| Nc1[nH]nc2nc3ccc(C(F)(F)F)cc3nc12 | > 100 µM |
| O=[N+]([O-])/C(C(Cl)=C(Cl)Cl)=C(\N1CCCCC1)n1cncn1 | 31.4 µM |
| O=C1c2cccnc2-c2nccc3c2c1nc1cc(Br)ccc13 | 0.0659 µM |
| NNC(=O)CSc1nc2ccccc2c(=O)n1N | > 100 µM |
| CN1COCc2c1ccc1cc3ccc4c(c3nc21)COCN4S(C)(=O)=O | > 100 µM |
| Oc1cccc(-c2nc3cc(F)ccc3s2)c1 | 27.6 µM |
| O=C1C(=Cc2ccccc2O)N=C(c2ccccc2)N1n1c(-c2ccccc2)nc2ccccc2c1=O | 64.1 µM |

Test system: CAKI-1 renal
Test: growth of human tumour cells (NCI), 48 h

| SMILES | TGI |
| --- | --- |
| CC(C)(C)C(=O)CC1=Nc2ccccc2SC1(O)CC(=O)C(C)(C)C (centres undefined) | 56.8 µM |
| N#CC1=C(N)N(c2ccccc2)C(c2ccccc2)C1(C#N)C#N (centres undefined) | > 100 µM |
| CCCCN=C(c1ccccc1)N1CCOCC1 | > 100 µM |
| CCOC(=O)c1ccc(C)c(N=NN(C)C)c1 | > 100 µM |
| CC(C)CC(O)P(=O)(O)O (centres undefined) | > 100 µM |
| CCC1(C)C=Cc2c(cc(O)c3c(=O)c4ccccc4n(C)c23)O1 (centres undefined) | > 10 µM |
| O=NN(CCCl)C(=O)NC1CCC(O)CC1 (centres undefined) | > 89.6 µM |
| Nc1[nH]nc2nc3ccc(C(F)(F)F)cc3nc12 | > 100 µM |
| O=[N+]([O-])/C(C(Cl)=C(Cl)Cl)=C(\N1CCCCC1)n1cncn1 | 25.2 µM |
| O=C1c2cccnc2-c2nccc3c2c1nc1cc(Br)ccc13 | 0.591 µM |
| NNC(=O)CSc1nc2ccccc2c(=O)n1N | > 100 µM |
| Cc1cc(S(=O)(=O)Nc2nc3cc(-c4ccc(Cl)cc4)sc3c(=O)n2N)c(S)cc1Cl | > 100 µM |
| CCC(=O)ONC(=O)Cn1ccc([N+](=O)[O-])n1 | > 100 µM |
| CC(=O)NC1c2ccccc2C(C)(C)C12CCC1(CC2)OCCO1 (centres undefined) | > 100 µM |
| CN1COCc2c1ccc1cc3ccc4c(c3nc21)COCN4S(C)(=O)=O | > 100 µM |
| Oc1cccc(-c2nc3cc(F)ccc3s2)c1 | 35.2 µM |
| CN(C)c1ccc(C2SCC(=O)N2c2ccc(Oc3ccc(Cl)cc3)c(Cl)c2)cc1 (centres undefined) | > 100 µM |
| CC(C(O)Cc1ccccc1)N(C)N=Nc1ccc([N+](=O)[O-])cc1 (centres undefined) | 51.8 µM |
| COc1ccc(/C=C2\N=C(SC)NC2=O)cc1 | > 100 µM |
| CC(C)NC(=O)OCCN=c1c2ccccc2ccc2ccccc12 | > 100 µM |
| O=c1oc2ccc([N+](=O)[O-])cc2c(Nc2ccc3c(c2)Oc2ccccc2O3)c1[N+](=O)[O-] | > 100 µM |
| Cn1c2ccccc2c(=NNc2cccc(C(=O)O)c2)c2ccccc21 | 73.3 µM |
| O=C1C(=Cc2ccccc2O)N=C(c2ccccc2)N1n1c(-c2ccccc2)nc2ccccc2c1=O | 84.8 µM |

Test system: DU-145 prostate
Test: growth of human tumour cells (NCI), 48 h

| SMILES | TGI |
| --- | --- |
| COc1ccc(N2C(=O)CSC2c2c[nH]c3ccccc23)cc1 (centres undefined) | > 100 µM |
| CC(C)(C)C(=O)CC1=Nc2ccccc2SC1(O)CC(=O)C(C)(C)C (centres undefined) | > 100 µM |
| N#CC1=C(N)N(c2ccccc2)C(c2ccccc2)C1(C#N)C#N (centres undefined) | 32.9 µM |
| CCCCN=C(c1ccccc1)N1CCOCC1 | > 100 µM |
| CC(C)CC(O)P(=O)(O)O (centres undefined) | > 100 µM |
| CCC1(C)C=Cc2c(cc(O)c3c(=O)c4ccccc4n(C)c23)O1 (centres undefined) | > 10 µM |
| Cc1ccc(S(=O)(=O)NC(=O)N[C@@H](Cc2cnc[nH]2)C(=O)O)cc1 | > 100 µM |
| Nc1[nH]nc2nc3ccc(C(F)(F)F)cc3nc12 | 36.8 µM |
| O=[N+]([O-])/C(C(Cl)=C(Cl)Cl)=C(\N1CCCCC1)n1cncn1 | 30.3 µM |
| S=C(Nc1ccc2c(c1)oc1ccccc12)c1cccnc1 | > 100 µM |
| O=C1c2cccnc2-c2nccc3c2c1nc1cc(Br)ccc13 | 0.421 µM |
| NNC(=O)CSc1nc2ccccc2c(=O)n1N | > 100 µM |
| Cc1cc(S(=O)(=O)Nc2nc3cc(-c4ccc(Cl)cc4)sc3c(=O)n2N)c(S)cc1Cl | > 100 µM |
| CCC(=O)ONC(=O)Cn1ccc([N+](=O)[O-])n1 | > 100 µM |
| CC(=O)NC1c2ccccc2C(C)(C)C12CCC1(CC2)OCCO1 (centres undefined) | > 100 µM |
| CN1COCc2c1ccc1cc3ccc4c(c3nc21)COCN4S(C)(=O)=O | > 100 µM |
| Oc1cccc(-c2nc3cc(F)ccc3s2)c1 | 57.9 µM |
| CN(C)c1ccc(C2SCC(=O)N2c2ccc(Oc3ccc(Cl)cc3)c(Cl)c2)cc1 (centres undefined) | 57.2 µM |
| CC(C(O)Cc1ccccc1)N(C)N=Nc1ccc([N+](=O)[O-])cc1 (centres undefined) | 85.5 µM |
| COc1ccc(/C=C2\N=C(SC)NC2=O)cc1 | > 100 µM |
| CC(C)NC(=O)OCCN=c1c2ccccc2ccc2ccccc12 | > 100 µM |
| O=c1oc2ccc([N+](=O)[O-])cc2c(Nc2ccc3c(c2)Oc2ccccc2O3)c1[N+](=O)[O-] | > 100 µM |
| Cn1c2ccccc2c(=O)c2cccc(C(=O)NC(CCCN=C(N)N)C(=O)O)c21 (centres undefined) | > 100 µM |
| COc1cc(OC)c(C2c3cc4c(cc3OC(N3CCCC3)C2C)OCO4)c(OC)c1 (centres undefined) | 59.2 µM |
| Cn1c2ccccc2c(=NNc2cccc(C(=O)O)c2)c2ccccc21 | 47.8 µM |
| O=C1C(=Cc2ccccc2O)N=C(c2ccccc2)N1n1c(-c2ccccc2)nc2ccccc2c1=O | > 100 µM |

Test system: HL-60(TB) leukemia
Test: growth of human tumour cells (NCI), 48 h

| SMILES | TGI |
| --- | --- |
| COc1ccc(N2C(=O)CSC2c2c[nH]c3ccccc23)cc1 (centres undefined) | > 100 µM |
| CC(C)(C)C(=O)CC1=Nc2ccccc2SC1(O)CC(=O)C(C)(C)C (centres undefined) | 80.2 µM |
| N#CC1=C(N)N(c2ccccc2)C(c2ccccc2)C1(C#N)C#N (centres undefined) | 43.9 µM |
| CCCCN=C(c1ccccc1)N1CCOCC1 | > 100 µM |
| CCOC(=O)c1ccc(C)c(N=NN(C)C)c1 | > 100 µM |
| CC(C)CC(O)P(=O)(O)O (centres undefined) | > 100 µM |
| Cc1ccc(S(=O)(=O)NC(=O)N[C@@H](Cc2cnc[nH]2)C(=O)O)cc1 | > 100 µM |
| O=NN(CCCl)C(=O)NC1CCC(O)CC1 (centres undefined) | 41.9 µM |
| CCC(=O)ONC(=O)Cn1ccc([N+](=O)[O-])n1 | > 100 µM |
| CC(=O)NC1c2ccccc2C(C)(C)C12CCC1(CC2)OCCO1 (centres undefined) | > 100 µM |
| Oc1cccc(-c2nc3cc(F)ccc3s2)c1 | 61 µM |
| CN(C)c1ccc(C2SCC(=O)N2c2ccc(Oc3ccc(Cl)cc3)c(Cl)c2)cc1 (centres undefined) | 58.7 µM |
| CC(C(O)Cc1ccccc1)N(C)N=Nc1ccc([N+](=O)[O-])cc1 (centres undefined) | > 100 µM |
| CC(C)NC(=O)OCCN=c1c2ccccc2ccc2ccccc12 | 43.9 µM |
| O=c1oc2ccc([N+](=O)[O-])cc2c(Nc2ccc3c(c2)Oc2ccccc2O3)c1[N+](=O)[O-] | 40.2 µM |
| Cn1c2ccccc2c(=NNc2cccc(C(=O)O)c2)c2ccccc21 | 33.5 µM |
| O=C1C(=Cc2ccccc2O)N=C(c2ccccc2)N1n1c(-c2ccccc2)nc2ccccc2c1=O | 31.9 µM |

Test system: HOP-92 NSCLC
Test: growth of human tumour cells (NCI), 48 h

| SMILES | TGI |
| --- | --- |
| COc1ccc(N2C(=O)CSC2c2c[nH]c3ccccc23)cc1 (centres undefined) | > 100 µM |
| CCOC(=O)c1ccc(C)c(N=NN(C)C)c1 | > 100 µM |
| CCC1(C)C=Cc2c(cc(O)c3c(=O)c4ccccc4n(C)c23)O1 (centres undefined) | > 10 µM |
| Cc1ccc(S(=O)(=O)NC(=O)N[C@@H](Cc2cnc[nH]2)C(=O)O)cc1 | > 100 µM |
| O=NN(CCCl)C(=O)NC1CCC(O)CC1 (centres undefined) | 31.9 µM |
| Nc1[nH]nc2nc3ccc(C(F)(F)F)cc3nc12 | 78 µM |
| S=C(Nc1ccc2c(c1)oc1ccccc12)c1cccnc1 | > 100 µM |
| O=C1c2cccnc2-c2nccc3c2c1nc1cc(Br)ccc13 | 2.02 µM |
